According to patent publication US5763400A, “Ecdysis-triggering hormone compositions” (priority 1996, dated 1998):
“Also recorded” adds a separate entry of the source. Ends that are not written are not given here.

Experiments:
pharate adults = assay: Injection into pharate adults: induction of ecdysis (eclosion); assay type: in vivo, Manduca sexta
Experimental: Pharate pupae responded to injections (400 pmol to 1 nmol) (FIG. 2B; n=12) up to 48 hours prior to natural ecdysis. […] Ecdysis followed after a period of 50 to 90 min. Pharate adults responded to Mas-ETH injections (1 to 2 nmol) up to 24 hours prior to natural ecdysis (n=10). Rotatory movements of the abdomen began within 3 to 10 min of injection and were followed by a period of relative quiescence.

[1] = test system: pharate 5th instar larvae; assay: Injection into pharate 5th instar larvae: induction of pre-ecdysis and ecdysis behavior; assay type: in vivo, Manduca sexta; conditions: for biological activity of additional EG peptides: initial RPLC data on EG
Experimental: A peptide with ecdysis-triggering activity was also purified from an extract of 50 pharate pupal EG with reversed-phase liquid chromatography (RPLC) (FIG. 1A) . For HPLC fractionation, freshly-dissected EG were homogenized in acidic methanol (MeOH: H2 O:acetic acid, 90:9:1) and the supernatant was evaporated to dryness. Crude extracts of EG were fractionated with a Microsorb C4 column (wide pore 300 A, 4.6 mm/25 cm), with a linearly increasing gradient of acetonitrile (3 to 53% in 90 min) in constant 0.1% TFA/water using a flow rate of 1 ml/min. Fractions were collected based on UV absorbance (220 nm) and vacuum centrifuged to dryness. Individual fractions were re-suspended in physiological saline and injected into pharate fifth instar Manduca sexta larvae. Induction of preecdysis behavior, visible as synchronous dorso-ventral contractions in body segments, were scored as positive responses.
(§1) Natural ecdysis in pharate 5th instar larvae is preceded by a well-defined pre-ecdysis behavior, characterized by dorso-ventral contractions that occur synchronously in abdominal and thoracic segments (Copenhaver and Truman, 1982; Truman and Weeks, 1983, 1985). Contractions, visible as a dimpling of the dorso-lateral body wall, begin in the most posterior segment, and gradually spread anteriorly. Pre-ecdysis behavior typically lasts 60 to 80 min, and is followed by ecdysis behavior, which lasts about 10 min. Ecdysis behavior is characterized by a distinctly different motor pattern consisting of peristaltic waves of contractions, which originate in the most posterior segment and move anteriorly (Weeks and Truman, 1984). Using a pressure transducer to record changes in internal pressure, in vivo measurements of pre-ecdysis and ecdysis contraction patterns were obtained in pharate 5th instar larvae and pharate pupae. Internal hydrostatic pressure was measured in pharate 5th instar larvae and pharate pupae of Manduca sexta with a Gould-Statham P23-ID pressure transducer. The transducer was connected to a saline-filled tube which in turn was attached to the posterior dorsal horn of pharate 5th instar larvae and pharate pupae with low melting point dental wax.
During natural pre-ecdysis in the larva, dorso-ventral contractions typically occur every 10 to 12 seconds with a duration of 5 to 7 seconds (FIG. 2A). When pharate larvae were injected with Mas-ETH (20 pmol to 1 nmol), pre-ecdysis began within 2 to 10 min, and the pattern was indistinguishable from that observed under natural conditions (n=13). The pre-ecdysis induced by Mas-ETH injection lasted 35 to 65 min, and was followed by ecdysis (FIG. 2A).
At about 36 hours preceding natural ecdysis in pharate 5th instar larvae, the first signs of apolysis can be observed as an accumulation of molting fluid in the prothorax. About two hours later, head capsule slip occurs (Curtis et al., 1984). Premature ecdysis behavior induced by Mas-ETH injection (34-10 hours prior to natural ecdysis) lasted from 10 to 45 min. […] Mas-ETH triggered successful ecdysis only after the old cuticle is sufficiently digested, some 6 to 8 hr before normal ecdysis. Sensitivity to ETH, therefore, is shown to exist during the pharate stage.
The ETH-PRP1 peptide was dissolved into physiological saline and injected into pharate fifth instar Manduca sexta larvae. A dose range of 50 pmol to 5 nmol was tested.

[2] = test system: isolated central nervous system of pharate 5th instar larvae; assay: Motor burst patterns of isolated central nervous system of pharate 5th instar larvae, bath application; assay type: cell-based, Manduca sexta
Experimental: (§2) The entire central nervous system or a chain of abdominal ganglia dissected from pharate fifth instar larvae or pharate pupae were placed in a 300 ml Sylgard bath and bathed in modified Weever's saline. Motor output was recorded extracellularly from dorsal roots of abdominal ganglia A5, A6, and A7 using polyethylene suction electrodes. Potentials were amplified with Grass P-15 AC amplifiers, captured on video tape, and played back on a Gould Brush pen recorder. To record natural pre-ecdysis and ecdtysis, the nervous system was removed after initiation of the behavior.
For studies involving bath application of synthetic MasETH, pharate 5th instar nerve cords were dissected at -8 hr prior to ecdysis, using liquid-Lilled head and brown mandibles as morphological markers. Pharate pupae were dissected at 8 hours prior to natural ecdysis using brown bars as the morphological marker.
(§3) The tracheal system was removed in all studies. The pattern of pre-eccdysisin isolated pharate 5th instar CNS under natural conditions was quite similar to that elicited by application of 100 nM Mas-ETH. To observe natural pre-ecdysis and ecdysis motor patterns, animals were observed until initiation of pre-ecdysis, at which time nerve cords were quickly removed and prepared for suction electrode recordings. In both instances, pre-ecdysis bursts occurred synchronously in the dorsal nerves of A5-A7 every 10 to 12 seconds with a duration of 5 to 10 sec. Similarly, the burst pattern driving ecdysis in pharate larvae under natural conditions was similar to that resulting from exposure to 1 mM Mas-ETH. Ecdysis bursts occurred every 20 to 30 seconds and were about 20 sec in duration, with an intersegmental delay of about 5 sec. Burst durations and intervals between bursts became longer as the behavior progressed, which corresponded to observations of natural behavior patterns. Optimal Mas-ETH concentrations for triggering pre-ecdysis were lower than those necessary for ecdysis.

[3] = test system: isolated nerve cords lacking the tracheal system; assay: Pre-ecdysis and ecdysis motor patterns in isolated nerve cords lacking the tracheal system; assay type: cell-based, Manduca sexta; conditions: absence of the tracheal system
Experimental: as §2
as §3, with “Burst durations and intervals between bursts became longer as the behavior progressed, which corresponded to observations of natural behavior patterns. Optimal Mas-ETH concentrations for triggering pre-ecdysis were lower than those necessary for ecdysis.” left out

pharate pupae = assay: Injection into pharate pupae: induction of pre-ecdysis and ecdysis; assay type: in vivo, Manduca sexta; conditions: 400 pmol to 1 nmol
Experimental: as §1
Pharate pupae responded to injections (400 pmol to 1 nmol) (FIG. 2B; n=12) up to 48 hours prior to natural ecdysis. […]

[4] = test system: pharate fourth instar Manduca sexta larvae; assay: Injection into pharate fourth instar larvae (liquid-filled head capsule stage), carboxy-terminus study; conditions: in vivo
Experimental: The amidated and acid form of the 26 mer of SEQ ID NO:3 was prepared using a solid state synthesizer. This procedure is the same as that described at example 7. The amidated and acid forms of ETH used in the present study were synthesized by Research Genetics Corporation using these standard protocols (5 mg. each of the amidated-ETH and the acid-ETH).

[5] = test system: pharate 5th instar larvae; assay: Injection into pharate 5th instar larvae: induction of pre-ecdysis and ecdysis behavior; assay type: in vivo, Manduca sexta; conditions: injected into insect larvae
[6] = Physiological actions of ETH-PRP2 (no method described)
larval insects = assay: Injection of synthetic Bom-ETH forms into larval insects; assay type: in vivo, Bombyx mori; conditions: free acid at doses much higher than the amidated form
Experimental: Synthetic Bom-ETH was prepared according to standard solid phase peptide synthesis methods by Research Genetics, Inc. (Birmingham, AL) to provide a peptide having the amino acid sequence of the 23 mer. Both the amidated and free --COOH terminal forms were prepared.

For CCOc1ccc2nc(S(N)(=O)=O)sc2c1 [Mas-ETH], the “time prior to natural ecdysis at which pharate adults respond to injection” value (pharate adults; 1 to 2 nmol, n=10) was “up to 24 hours”, the “condition of emerged adults” value (pharate adults; emerged before resorption of molting fluid) was “could not inflate their wings” and the “behavior exhibited after injection” value ([1]; injected at head capsule slip, 34 hours prior to normal ecdysis) was “both pre-ecdysis and ecdysis motor patterns”. For the same compound, the “outcome of premature ecdysis behavior” value ([1]; injection 34-10 hours prior to natural ecdysis) was “ecdysis could not be completed”, the “time prior to normal ecdysis at which larvae respond to injection” value ([1]; pre-ecdysis behavior, n=7) was “up to 36 hours” and the “interval of pre-ecdysis bursts (every)” value ([2]; 100 nM, dorsal nerves of A5-A7) was 10 to 15 s. For the same compound, the pre-ecdysis burst duration ([2]; 100 nM, dorsal nerves of A5-A7) was 5 to 7 s, the ecdysis burst duration ([2]; 1 mM Mas-ETH) was “about 20 sec” and the “intersegmental delay of ecdysis bursts” value ([2]; 1 mM Mas-ETH) was “about 5 sec”. For the same compound, the “pre-ecdysis and ecdysis motor patterns of isolated CNS” value [3] was “elicited motor burst patterns; also recorded: can generate pre-ecdysis and ecdysis motor patterns”, the “pre-ecdysis and ecdysis motor patterns of isolated CNS” value ([3]; listed as ETH) was “responds to ETH; also recorded: responded; also recorded: not required” and the “pre-ecdysis by blood pressure measurements” value (pharate pupae; earlier stages of development) was “clear rhythm within minutes”. The “time prior to natural ecdysis at which pharate pupae respond to injection” value (pharate pupae; n=12) was “up to 48 hours” and the “dose causing preecdysis followed by ecdysis” value [4] was no more than 1 pmol.
For “ETH-PRP1: 47-mer peptide, Asn 66 to Met 112 of the ETH precursor, SEQ ID NO:14, chemically synthesized (NYDSENRFDIPKLYPWRAENTELYEDDAQPTNGEEINGFYGKQRENM)”, the cardioactivity [5] was “causes cardioacceleration”, the ecdysis behavior ([1]; dose range 50 pmol to 5 nmol) was “did not elicit ecdysis behavior” and the “latency from injection to preecdysis behavior” value ([1]; dose range 50 pmol to 5 nmol) was 15 to 20 min. For the same compound, the pre-ecdysis stimulating activity ([1]; in vivo) was “pre-ecdysis stimulating activity” and the “biological activity of additional EG peptides” value [1] was “ETH-like biological activity”.
For “ETH-PRP2: 15-mer peptide deduced from the ETH precursor, Gln 20 to Val 34, SEQ ID NO:13 (QVESSFIKPNNVPRV)”, the “biological activity of additional EG peptides” value [1] was “ETH-like biological activity”, the cardioacceleration [6] was “acts as a cardioaccelerator” and the “effect on physiological actions of Mas-ETH” value [6] was “increasing its ecdysis triggering activity”.
For “SNEAFDEDVMGYVIKSNKNIPRM (not fully specified (C-terminus)) [Bom-ETH amidated form]”, the “biological activity upon injection” value (larval insects) was “biologically active”.
